Source: ChEMBL document CHEMBL1157700, “Synthesis of 3-[(N-carboalkoxy)ethylamino]-indazole-dione derivatives and their biological activities on human liver carbonyl reductase” (Bioorg Med Chem, 2010)

Tested on: A549
Experiment: Potentiation of daunorubicin-induced cytotoxicity against human A549 cells
Format: functional

SMILES: CNc1ncnc2c1c(-c1cccc(O)c1)cn2C(C)C
- Activity: 25%
